The nature of this data set: Peptide stability test, Tris buffer (pH 7.0), 60° C. storage, HPLC remaining rate. Format: physicochemical. The following applies: for remaining rate after correction for water, 60° C., 1 week preservation / remaining rate after correction for water, 60° C., 2 weeks preservation: 100 μM in Tris buffer pH 7.0. The procedure: Peptides 1, 2 and 6 to 9 synthesized in Example 2 were weighed and dissolved in Tris buffer (pH 7.0) to prepare 1.0 mM peptide solutions. Each solution was filtered with a Chromatdisk (product of Merck Millipore, Millex-GV, 0.22 μm). The filtrate was diluted to 100 μM with Tris buffer (pH 7.0) and dispensed into a tube (Protein LoBind Tube by Eppendorf Co.). The prepared peptide solutions were incubated for 1 week or 2 weeks in a 60° C. thermostatic bath to obtain stored samples. A simultaneously prepared sample among the peptide solutions that was not stored was used as a standard sample (initial sample). The standard sample and the stored samples were stored at −30° C. until sample analysis. Each stored sample was measured under the following HPLC analysis conditions 2, and the remaining rate after correction for water for each peptide among the stored samples was calculated in the same manner as Example 3. Guard column: XSelect CSH C18 by Waters Co., 5 μm, 4.6×20 mm Guard Cartridge Detection wavelength: 220 nm Mobile phase A: 0.1% formic acid aqueous solution Mobile phase B: 0.1% acetonitrile formate solution Measuring time: 20 minutes Measuring sample injection rate: 50 μL Flow rate: 1.0 mL/min Column temperature: 40° C. Sample cooler: 25° C. Mobile phase delivery: The mixing ratio of mobile phase A and mobile phase B was varied as shown in Table 5 for linear concentration gradient control. Peptides 12 to 25, 27 and 28 synthesized in Example 2 were weighed and dissolved in Tris buffer (pH 7.0) to prepare 1.0 mM peptide solutions. Each solution was filtered with a Chromatdisk (product of Merck Millipore, Millex-GV, 0.22 μm). The filtrate was diluted to 100 μM with Tris buffer (pH 7.0) and dispensed into a tube (Protein LoBind Tube by Eppendorf Co.). The prepared peptide solutions were incubated for one week or 2 weeks in a 60° C. thermostatic bath to obtain stored samples. A simultaneously prepared sample among the peptide solutions that was not stored was used as a standard sample (initial sample). The standard sample and the stored samples were stored at −30° C. until sample analysis. The remaining rate after correction for water for each peptide among the stored samples was calculated in the same manner as Example 4, and the results are shown in Table 7. Peptides 29 to 34 synthesized in Example 2 were weighed and dissolved in Tris buffer (pH 7.0) to prepare 1.0 mM peptide solutions. Each solution was filtered with a Chromatdisk (product of Merck Millipore, Millex-GV, 0.22 μm). The filtrate was diluted to 100 μM with Tris buffer (pH 7.0) and dispensed into a tube (Protein LoBind Tube by Eppendorf Co.). The prepared peptide solutions were incubated for 2 weeks in a 60° C. thermostatic bath to obtain stored samples. A simultaneously prepared sample among the peptide solutions that was not stored was used as a standard sample (initial sample). The standard sample and the stored samples were stored at −30° C. until sample analysis. The remaining rate after correction for water for each peptide among the stored samples was calculated in the same manner as Example 4, and the results are shown in Table 7-2. Peptide 26 synthesized in Example 2 was weighed and dissolved in Tris buffer (pH 7.0) to prepare a 1.0 mM peptide solution. The solution was filtered with a Chromatdisk (product of Merck Millipore, Millex-GV, 0.22 μm). The filtrate was diluted to 100 μM with Tris buffer (pH 7.0) and dispensed into a tube (Protein LoBind Tube by Eppendorf Co.). The prepared peptide solution was incubated for one week or 2 weeks in a 60° C. thermostatic bath to obtain stored samples. A simultaneously prepared sample among the peptide solutions that was not stored was used as a standard sample (initial sample). The standard sample and the stored sample were stored at −30° C. until sample analysis. […]

Each structure is given as a SMILES string. Square brackets hold non-standard residues; d marks the D form. Peptide text beside a SMILES is read from it. Ala(1H-tetrazol-5-yl) = N[C@@H](Cc1nnn[nH]1)C(=O)O; Nle = CCCC[C@H](N)C(=O)O

Seven compounds from patent publication US20220202905A1, “COMPOSITION FOR PREVENTING OR TREATING NEUROTROPHIC KERATITIS WHICH CONTAINS PACAP PEPTIDE OR STABILIZED PACAP PEPTIDE” (SENJU PHARMACEUTICAL CO., LTD., priority 2019, published 2022) can be followed below.

Regarding `CC[C@H](C)[C@H](NC(=O)CNC(=O)[C@H](Cc1nnn[nH]1)NC(=O)[C@H](CO)NC(=O)[C@@H](N)Cc1c[nH]cn1)C(=O)N[C@@H](Cc1ccccc1)C(=O)N[C@H](C(=O)N[C@@H](Cc1nnn[nH]1)C(=O)N[C@@H](CO)C(=O)N[C@@H](Cc1ccc(O)cc1)C(=O)N[C@@H](CO)C(=O)N[C@@H](CCCNC(=N)N)C(=O)N[C@@H](Cc1ccc(O)cc1)C(=O)N[C@@H](CCCNC(=N)N)C(=O)N[C@@H](CCCCN)C(=O)N[C@@H](CCC(N)=O)C(=O)N[C@@H](CC(C)C)C(=O)N[C@@H](C)C(=O)N[C@H](C(=O)N[C@@H](CCCCN)C(=O)N[C@@H](CCCCN)C(=O)N[C@@H](Cc1ccc(O)cc1)C(=O)N[C@@H](CC(C)C)C(=O)N[C@@H](C)C(=O)N[C@@H](C)C(=O)N[C@H](C(=O)N[C@@H](CC(C)C)C(N)=O)C(C)C)C(C)C)[C@@H](C)O` [Peptide 7] (H-HS[Ala(1H-tetrazol-5-yl)]GIFT[Ala(1H-tetrazol-5-yl)]SYSRYRKQLAVKKYLAAVL-NH2), where the note is “Table 6, HPLC conditions 2”, the “remaining rate after correction for water, 60° C., 1 week preservation” value (“remaining rate … 1 week preservation” for short) is 91.7% and the “remaining rate after correction for water, 60° C., 2 weeks preservation” value (“remaining rate … 2 weeks preservation” below) stood at 84.8%.

Consider `CCCC[C@H](NC(=O)[C@H](CCC(N)=O)NC(=O)[C@H](CCCCN)NC(=O)[C@H](CCCNC(=N)N)NC(=O)[C@H](Cc1ccc(O)cc1)NC(=O)[C@H](CCCNC(=N)N)NC(=O)[C@H](CO)NC(=O)[C@H](Cc1ccc(O)cc1)NC(=O)[C@H](CO)NC(=O)[C@H](Cc1nnn[nH]1)NC(=O)[C@@H](NC(=O)[C@H](Cc1ccccc1)NC(=O)[C@@H](NC(=O)CNC(=O)[C@H](Cc1nnn[nH]1)NC(=O)[C@H](CO)NC(=O)[C@H](Cc1c[nH]cn1)NC(C)=O)[C@@H](C)CC)[C@@H](C)O)C(=O)N[C@@H](C)C(=O)N[C@H](C(=O)N[C@@H](CCCCN)C(=O)N[C@@H](CCCCN)C(=O)N[C@@H](Cc1ccc(O)cc1)C(=O)N[C@@H](CC(C)C)C(=O)N[C@@H](C)C(=O)N[C@@H](C)C(=O)N[C@H](C(=O)N[C@@H](CC(C)C)C(N)=O)C(C)C)C(C)C` [Peptide 8] (Ac-HS[Ala(1H-tetrazol-5-yl)]GIFT[Ala(1H-tetrazol-5-yl)]SYSRYRKQ[Nle]AVKKYLAAVL-NH2), for which the “expected remaining rate for 2 years at room temperature” value (buffer, 336 h) was ≥ 90%.

Consider `CC[C@H](C)[C@H](NC(=O)CNC(=O)[C@H](Cc1nnn[nH]1)NC(=O)[C@H](C)NC(=O)[C@H](Cc1c[nH]cn1)NC(C)=O)C(=O)N[C@@H](Cc1ccccc1)C(=O)N[C@H](C(=O)N[C@@H](Cc1nnn[nH]1)C(=O)N[C@@H](CO)C(=O)N[C@@H](Cc1ccc(O)cc1)C(=O)N[C@@H](CO)C(=O)N[C@@H](CCCNC(=N)N)C(=O)N[C@@H](Cc1ccc(O)cc1)C(=O)N[C@@H](CCCNC(=N)N)C(=O)N[C@@H](CCCCN)C(=O)N[C@@H](CCC(N)=O)C(=O)N[C@@H](CC(C)C)C(=O)N[C@@H](C)C(=O)N[C@H](C(=O)N[C@@H](CCCCN)C(=O)N[C@@H](CCCCN)C(=O)N[C@@H](Cc1ccc(O)cc1)C(=O)N[C@@H](CC(C)C)C(=O)N[C@@H](C)C(=O)N[C@@H](C)C(=O)N[C@H](C(=O)N[C@@H](CC(C)C)C(N)=O)C(C)C)C(C)C)[C@@H](C)O` [Peptide 14] (Ac-HA[Ala(1H-tetrazol-5-yl)]GIFT[Ala(1H-tetrazol-5-yl)]SYSRYRKQLAVKKYLAAVL-NH2), for which, for the setting “Table 7”, the “remaining rate … 1 week preservation” value was 96.7% and the “remaining rate … 2 weeks preservation” value was determined as 94.5%.

For the compound `CC[C@H](C)[C@H](NC(=O)CNC(=O)[C@H](Cc1nnn[nH]1)NC(=O)[C@H](CO)NC(=O)[C@H](Cc1c[nH]cn1)NC(C)=O)C(=O)N[C@@H](Cc1ccccc1)C(=O)N[C@H](C(=O)N[C@@H](Cc1nnn[nH]1)C(=O)N[C@@H](CO)C(=O)N[C@@H](Cc1ccc(O)cc1)C(=O)N[C@@H](C)C(=O)N[C@@H](CCCNC(=N)N)C(=O)N[C@@H](Cc1ccc(O)cc1)C(=O)N[C@@H](CCCNC(=N)N)C(=O)N[C@@H](CCCCN)C(=O)N[C@@H](CCC(N)=O)C(=O)N[C@@H](CC(C)C)C(=O)N[C@@H](C)C(=O)N[C@H](C(=O)N[C@@H](CCCCN)C(=O)N[C@@H](CCCCN)C(=O)N[C@@H](Cc1ccc(O)cc1)C(=O)N[C@@H](CC(C)C)C(=O)N[C@@H](C)C(=O)N[C@@H](C)C(=O)N[C@H](C(=O)N[C@@H](CC(C)C)C(N)=O)C(C)C)C(C)C)[C@@H](C)O` [Peptide 16] (Ac-HS[Ala(1H-tetrazol-5-yl)]GIFT[Ala(1H-tetrazol-5-yl)]SYARYRKQLAVKKYLAAVL-NH2), under “Table 7”, the “remaining rate … 1 week preservation” value is reported as 98.1% and the “remaining rate … 2 weeks preservation” value was 93.5%.

Turning to `CC[C@H](C)[C@H](NC(=O)CNC(=O)[C@H](Cc1nnn[nH]1)NC(=O)[C@H](CO)NC(=O)[C@H](Cc1c[nH]cn1)NC(C)=O)C(=O)N[C@@H](Cc1ccccc1)C(=O)N[C@H](C(=O)N[C@@H](Cc1nnn[nH]1)C(=O)N[C@@H](CO)C(=O)N[C@@H](Cc1ccc(O)cc1)C(=O)N[C@@H](CO)C(=O)N[C@@H](CCCNC(=N)N)C(=O)N[C@@H](Cc1ccc(O)cc1)C(=O)N[C@@H](CCCNC(=N)N)C(=O)N[C@@H](CCCCN)C(=O)N[C@@H](C)C(=O)N[C@@H](CC(C)C)C(=O)N[C@@H](C)C(=O)N[C@H](C(=O)N[C@@H](CCCCN)C(=O)N[C@@H](CCCCN)C(=O)N[C@@H](Cc1ccc(O)cc1)C(=O)N[C@@H](CC(C)C)C(=O)N[C@@H](C)C(=O)N[C@@H](C)C(=O)N[C@H](C(=O)N[C@@H](CC(C)C)C(N)=O)C(C)C)C(C)C)[C@@H](C)O` [Peptide 17] (Ac-HS[Ala(1H-tetrazol-5-yl)]GIFT[Ala(1H-tetrazol-5-yl)]SYSRYRKALAVKKYLAAVL-NH2), where the note is “Table 7”, the “remaining rate … 1 week preservation” value turned out to be 97.8% and the “remaining rate … 2 weeks preservation” value came out at 93.4%.

In the case of `CC[C@H](C)[C@H](NC(=O)CNC(=O)[C@H](Cc1nnn[nH]1)NC(=O)[C@H](CO)NC(=O)[C@H](Cc1c[nH]cn1)NC(C)=O)C(=O)N[C@@H](Cc1ccccc1)C(=O)N[C@H](C(=O)N[C@@H](Cc1nnn[nH]1)C(=O)N[C@@H](CO)C(=O)N[C@@H](Cc1ccc(O)cc1)C(=O)N[C@@H](CO)C(=O)N[C@@H](CCCNC(=N)N)C(=O)N[C@@H](Cc1ccc(O)cc1)C(=O)N[C@@H](CCCNC(=N)N)C(=O)N[C@@H](CCCCN)C(=O)N[C@@H](CCC(N)=O)C(=O)N[C@@H](CC(C)C)C(=O)N[C@@H](C)C(=O)N[C@H](C(=O)N[C@@H](CCCCN)C(=O)N[C@@H](CCCCN)C(=O)N[C@@H](Cc1ccc(O)cc1)C(=O)N[C@@H](CC(C)C)C(=O)N[C@@H](C)C(=O)N[C@@H](C)C(=O)N[C@H](C(=O)N[C@@H](C)C(N)=O)C(C)C)C(C)C)[C@@H](C)O` [Peptide 20] (Ac-HS[Ala(1H-tetrazol-5-yl)]GIFT[Ala(1H-tetrazol-5-yl)]SYSRYRKQLAVKKYLAAVA-NH2), under “Table 7”, the “remaining rate … 1 week preservation” value turned out to be 93.9% and the “remaining rate … 2 weeks preservation” value came to 91.8%.

For `CC[C@H](C)[C@H](NC(=O)CNC(=O)[C@H](Cc1nnn[nH]1)NC(=O)[C@H](CO)NC(=O)[C@H](Cc1c[nH]cn1)NC(C)=O)C(=O)N[C@@H](Cc1ccccc1)C(=O)N[C@H](C(=O)N[C@@H](Cc1nnn[nH]1)C(=O)N[C@@H](CO)C(=O)N[C@@H](Cc1ccc(O)cc1)C(=O)N[C@@H](CO)C(=O)N[C@@H](CCCNC(=N)N)C(=O)N[C@@H](Cc1ccc(O)cc1)C(=O)N[C@@H](CCCNC(=N)N)C(=O)N[C@@H](CCCNC(=N)N)C(=O)N[C@@H](CCC(N)=O)C(=O)N[C@@H](CC(C)C)C(=O)N[C@@H](C)C(=O)N[C@H](C(=O)N[C@@H](CCCNC(=N)N)C(=O)N[C@@H](CCCNC(=N)N)C(=O)N[C@@H](Cc1ccc(O)cc1)C(=O)N[C@@H](CC(C)C)C(=O)N[C@@H](C)C(=O)N[C@@H](C)C(=O)N[C@H](C(=O)N[C@@H](CC(C)C)C(N)=O)C(C)C)C(C)C)[C@@H](C)O` [Peptide 21] (Ac-HS[Ala(1H-tetrazol-5-yl)]GIFT[Ala(1H-tetrazol-5-yl)]SYSRYRRQLAVRRYLAAVL-NH2), where the note is “Table 7”, the “remaining rate … 1 week preservation” value was 97.8% and the “remaining rate … 2 weeks preservation” value was determined as 93.5%.
